Organism: Rattus norvegicus
Experiment: DrugMatrix - Regimen: Daily Repeat
Format: toxicity, organism-based, Sprague-Dawley
Set-up: regimen Daily Repeat, gender Male, age 6-8 weeks
Conditions: in vivo, ip, 60 mg/kg, route intraperitoneal, dose level High, vehicle 100 % PBS; for BASOPHIL / EOSINOPHIL / ERYTHROCYTE COUNT / HEMATOCRIT / HEMOGLOBIN / LEUKOCYTE COUNT / LYMPHOCYTE / MEAN CORPUSCULAR HEMOGLOBIN / MEAN CORPUSCULAR HEMOGLOBIN CONCENTRATION / MEAN CORPUSCULAR VOLUME / MONOCYTE / NEUTROPHIL / PLATELET COUNT: tissue Blood; for ALANINE AMINOTRANSFERASE / ALBUMIN / ALKALINE PHOSPHATASE / ASPARTATE AMINOTRANSFERASE / BLOOD UREA NITROGEN / CARBON DIOXIDE / CHLORIDE / CHOLESTEROL / CREATINE PHOSPHOKINASE / CREATININE / GLUCOSE / LACTATE DEHYDROGENASE / LIPASE / PHOSPHORUS / POTASSIUM / SODIUM / TOTAL BILIRUBIN / TOTAL PROTEIN / URIC ACID: tissue Plasma

## C[C@H]1C(=O)O[C@@H]2CCN3CC=C(COC(=O)[C@](C)(O)[C@]1(C)O)[C@H]23 [MONOCROTALINE]
72 h, time 3 day
  BASOPHIL: 1.7%
  EOSINOPHIL: 1%
  ERYTHROCYTE COUNT: 6.77 x10E6/uL
  HEMATOCRIT: 46.53%
  HEMOGLOBIN: 14.7 G/DL
  LEUKOCYTE COUNT: 8.87 x10E3/uL
  LYMPHOCYTE: 84.3%
  MEAN CORPUSCULAR HEMOGLOBIN: 21.73 pg
  MEAN CORPUSCULAR HEMOGLOBIN CONCENTRATION: 31.63 G/DL
  MEAN CORPUSCULAR VOLUME: 68.73 fL
  MONOCYTE: 1.9%
  NEUTROPHIL: 9.57%
  PLATELET COUNT: 1156.67 x10E3/uL
  ALANINE AMINOTRANSFERASE: 33.67 u/L
  ALBUMIN: 4.27 G/DL
  ALKALINE PHOSPHATASE: 425.33 u/L
  ASPARTATE AMINOTRANSFERASE: 77.33 u/L
  BLOOD UREA NITROGEN: 16 mg/dL
  CARBON DIOXIDE: 30 mmol/L
  CHLORIDE: 104.33 MEQ/L
  CHOLESTEROL: 79 mg/dL
  CREATINE PHOSPHOKINASE: 394.33 u/L
  CREATININE: 0.47 mg/dL
  GLUCOSE: 166.33 mg/dL
  LACTATE DEHYDROGENASE: 66 u/L
  LIPASE: 14.67 u/L
  PHOSPHORUS: 12.57 mg/dL
  POTASSIUM: 7.2 MEQ/L
  SODIUM: 148.33 MEQ/L
  TOTAL BILIRUBIN: 0.47 mg/dL
  TOTAL PROTEIN: 6.57 G/DL
  URIC ACID: 1.77 mg/dL
120 h, time 5 day
  BASOPHIL: 0.4%
  EOSINOPHIL: 0.6%
  ERYTHROCYTE COUNT: 7.1 x10E6/uL
  HEMATOCRIT: 48.3%
  HEMOGLOBIN: 14.93 G/DL
  LEUKOCYTE COUNT: 10.69 x10E3/uL
  LYMPHOCYTE: 91.33%
  MEAN CORPUSCULAR HEMOGLOBIN: 21.03 pg
  MEAN CORPUSCULAR HEMOGLOBIN CONCENTRATION: 30.93 G/DL
  MEAN CORPUSCULAR VOLUME: 68.03 fL
  MONOCYTE: 1.63%
  NEUTROPHIL: 5.2%
  PLATELET COUNT: 1323.67 x10E3/uL
  ALANINE AMINOTRANSFERASE: 48 u/L
  ALBUMIN: 4.1 G/DL
  ALKALINE PHOSPHATASE: 488 u/L
  ASPARTATE AMINOTRANSFERASE: 69 u/L
  BLOOD UREA NITROGEN: 13 mg/dL
  CARBON DIOXIDE: 30 mmol/L
  CHLORIDE: 108 MEQ/L
  CHOLESTEROL: 65.67 mg/dL
  CREATINE PHOSPHOKINASE: 139 u/L
  CREATININE: 0.23 mg/dL
  GLUCOSE: 152.33 mg/dL
  LACTATE DEHYDROGENASE: 44.67 u/L
  LIPASE: 13.33 u/L
  PHOSPHORUS: 14.7 mg/dL
  POTASSIUM: 6.77 MEQ/L
  SODIUM: 155 MEQ/L
  TOTAL BILIRUBIN: 0.2 mg/dL
  TOTAL PROTEIN: 6.33 G/DL
  URIC ACID: 1.63 mg/dL
[…], time 14 day
  BASOPHIL: 0.38%
  EOSINOPHIL: 0.48%
  ERYTHROCYTE COUNT: 8.25 x10E6/uL
  HEMATOCRIT: 49.54%
  HEMOGLOBIN: 16.32 G/DL
  LEUKOCYTE COUNT: 14.35 x10E3/uL
  LYMPHOCYTE: 85.94%
  MEAN CORPUSCULAR HEMOGLOBIN: 19.8 pg
  MEAN CORPUSCULAR HEMOGLOBIN CONCENTRATION: 32.96 G/DL
  MEAN CORPUSCULAR VOLUME: 60.04 fL
  MONOCYTE: 1.94%
  NEUTROPHIL: 9.64%
  PLATELET COUNT: 1232.8 x10E3/uL
  ALANINE AMINOTRANSFERASE: 40.6 u/L
  ALBUMIN: 4.46 G/DL
  ALKALINE PHOSPHATASE: 403.4 u/L
  ASPARTATE AMINOTRANSFERASE: 73.6 u/L
  BLOOD UREA NITROGEN: 15.2 mg/dL
  CARBON DIOXIDE: 30.8 mmol/L
  CHLORIDE: 102.2 MEQ/L
  CHOLESTEROL: 89.2 mg/dL
  CREATINE PHOSPHOKINASE: 155.8 u/L
  CREATININE: 0.44 mg/dL
  GLUCOSE: 145 mg/dL
  LACTATE DEHYDROGENASE: 118.6 u/L
  LIPASE: 18.2 u/L
  PHOSPHORUS: 9.42 mg/dL
  POTASSIUM: 6.64 MEQ/L
  SODIUM: 148.8 MEQ/L
  TOTAL BILIRUBIN: 0.56 mg/dL
  TOTAL PROTEIN: 7.2 G/DL
  URIC ACID: 2.16 mg/dL

Source: ChEMBL document CHEMBL3885881, “DrugMatrix”
